# Data taken from EP4445909B1, “PHARMACEUTICAL FORMULATION CONSISTING OF C-PEPTIDE COMBINED WITH A BISPHOSPHONATE IN A SINGLE FORM AND ITS USE IN THE TREATMENT OF OSTEOSARCOPENIA” (Università Degli Studi Magna Graecia di Catanzaro, priority 2023, dated 2026).
# Assays:
# Assay type in all cases: in vivo
# serum ubiquitin = test: Serum ubiquitin in diabetic rats after C-peptide administration; details: 72 nmol/kg/24 h for 42 days
# [1] = tested on: muscle fibers of the Gastrocnemius (GC), Thiabialis (TA) and the long finger extensor muscle (EDL); test: Muscle fibre morphometry (CSA, perimeter, Minimum Feret diameter) after C-Peptide administration in diabetic rats; details: 72 nmol/kg/24 h for 42 days
# Procedure: The experimental tests carried out by the Applicant have shown that the administration of 72 nmol/kg/24 h of C-Peptide for 42 days improves the cross-sectional area (CSA), the perimeter and the Minimum Feret diameter of the muscle fibers of the Gastrocnemius (GC), Thiabialis (TA) and the long finger extensor muscle (EDL) in diabetic rats. Specifically, the mean CSA of the GC fibers decreased by 39.5% in the diabetic group, while only 6.6% in the rats of the C-peptide group. The CSA of the TA and EDL muscles was reduced, in the C-peptide group, by 10% and 11%, respectively, while a reduction of 65% and 45% occurred in the diabetic group, compared to the control animals. Similar results were obtained with the other parameters (perimeter and Minimum Feret diameter).
# bone = test: Micro-CT of trabecular bone in diabetic rats after C-peptide administration; details: 72 nmol/kg/24 h, compared to the diabetes only group (D-CTR)
substance,measurement,setting,value
C-peptide,"serum ubiquitin, induced by diabetes",serum ubiquitin,prevents the increase
same,"cross-sectional area (CSA), perimeter and Minimum Feret diameter of the muscle fibers of GC, TA and EDL",[1],improves
same,mean CSA of the GC fibers decreased,"[1]; Gastrocnemius, diabetic group decreased by 39.5%",6.6%
same,CSA of the EDL muscle reduced,"[1]; compared to the control animals, diabetic group 45%",11%
same,CSA of the TA muscle reduced,"[1]; compared to the control animals, diabetic group 65%",10%
same,trabecular spaces,bone; p=0.01,reduction
same,trabecular thickness,bone; p=0.04,better
